Where a name gives a salt, the structure may show the parent alone. Read-outs that look alike come from different tables or passages of the source.
Tested on: rat aorta
Assay: reduction of calcium-induced contraction (response to calcium chloride) of spirally cut strips of rat aorta in vitro
Type: cell-based
Protocol: The ability of the compounds to inhibit the movement of calcium into the cell is shown by their effectiveness in reducing the response of isolated […] to an increase in calcium ion concentration in vitro. The test is performed by mounting spirally cut strips of rat aorta with one end fixed and the other attached to a force transducer. The tissue is immersed in a bath of physiological saline solution containing potassium ions at a concentration of 45 millimolar and no calcium. Calcium chloride is added to the bath with a pipette to give a final calcium ion concentration of 2 millimolar. The change in tension caused by the resulting contraction of the tissue is noted. The bath is drained and replaced with fresh saline solution and, after 45 minutes, the test is repeated with the particular compound under test present in the saline solution. The concentration of compound required to reduce the response by 50% is recorded.

[1] = 0.75 h; isolated rat aorta strips; 45 millimolar potassium; 2 millimolar calcium; retest after 45 minutes with compound; read-out: molar concentration of the compounds required to reduce the response by 50% (IC50)
[2] = ranking among the tested Examples
[3] = read-out: molar concentration of the compounds required to reduce the response by 50% (IC50); isolated rat aorta strips; 45 millimolar potassium; 2 millimolar calcium; retest after 45 minutes with compound
[4] = isolated rat aorta strips; 45 millimolar potassium; 2 millimolar calcium; retest after 45 minutes with compound; read-out: molar concentration of the compounds required to reduce the response by 50% (IC50)

SMILES | IC50 [1] | activity ranking by IC50 (the smaller the concentration the more active the compound) [2] | other results
CCOC(=O)C1=C(COCCNCc2ccccc2)NC(C)=C(C(=O)OC)C1c1ccccc1Cl (stereo not drawn) [Example 8] | 50 nM | – | –
CCOC(=O)C1=C(COCCN)NC(C)=C(C(=O)OC)C1c1ccccc1Cl (stereo not drawn) [Example 9] | 3.2 nM | most active compounds | –
CCOC(=O)C1=C(COCCNCCOC)NC(C)=C(C(=O)OC)C1c1ccccc1Cl (stereo not drawn) [Example 10] | 25 nM | – | –
CCOC(=O)C1=C(COCCN)NC(C)=C(C(=O)OC)C1c1ccccc1Cl.O=C(O)/C=C\C(=O)O (stereo not drawn) [Example 11, 2-[(2-aminoethoxy)methyl]-4-(2-chlorophenyl)-3-ethoxycarbonyl-5-methoxycarbonyl-6-methyl-1,4-dihydropyridine maleate] | – | most active compounds | IC50 [3]: 3.2 nM
CCOC(=O)C1=C(COCCN)NC(C)=C(C(=O)OC)C1c1ccccc1Cl (stereo not drawn) [Example 12, 2-[2-aminoethoxy)methyl]-4-(2-chlorophenyl)-3-ethoxycarbonyl-5-methoxycarbonyl-6-methyl-1,4-dihydropyridine maleate] | – | most active compounds | IC50 [4]: 3.2 nM
CCOC(=O)C1=C(COCCN)NC(C)=C(C(=O)OC)C1c1ccccc1 (stereo not drawn) [Example 14] | 160 nM | – | –
CCOC(=O)C1=C(COCCN)NC(C)=C(C(=O)OC)C1c1ccccc1F (stereo not drawn) [Example 15] | 18 nM | – | –
CCOC(=O)C1=C(COCCNCC(N)=O)NC(C)=C(C(=O)OC)C1c1ccccc1Cl (stereo not drawn) [Example 19, 2-(2-{[4-(2-Chlorophenyl)-3-ethoxycarbonyl-5-methoxycarbonyl-6-methyl-1,4-dihydropyrid-2-yl]methoxy}ethylamino)acetamide] | 4 nM | – | –
CCOC(=O)C1=C(COCCN)NC(C)=C(C(=O)OC)C1c1ccccc1Cl.O=C(O)/C=C\C(=O)O (stereo not drawn) [Example 22, 2-[(2-aminoethoxy)methyl]-4-(2-chlorophenyl)-3-ethoxycarbonyl-5-methoxycarbonyl-6-methyl-1,4-dihydropyridine maleate] | – | most active compounds | IC50 [3]: 3.2 nM
CCOC(=O)C1=C(COCCNC)NC(C)=C(C(=O)OC)C1c1ccccc1Cl.O=C(O)/C=C\C(=O)O (stereo not drawn) [Example 23, 4-(2-Chlorophenyl)-2-[2-(N-methylamino)ethoxymethyl]-3-ethoxycarbonyl-5-methoxycarbonyl-6-methyl-1,4-dihydropyridine maleate] | – | most active compounds | IC50 [4]: 3.2 nM
CCOC(=O)C1=C(COCCNC)NC(C)=C(C(=O)OC)C1c1ccccc1Cl.O=C(O)/C=C\C(=O)O (stereo not drawn) [Example 24, 4-(2-chlorophenyl)-2-[2-(N-methylamino)ethoxymethyl]-3-ethoxycarbonyl-5-methoxycarbonyl-6-methyl-1,4-dihydropyridine maleate] | – | most active compounds | IC50 [4]: 3.2 nM

Now from value to compound, other results behind:

IC50 [1] | SMILES | activity ranking by IC50 (the smaller the concentration the more active the compound) [2] | other results
3.2 nM | CCOC(=O)C1=C(COCCNC)NC(C)=C(C(=O)OC)C1c1ccccc1Cl.O=C(O)C(=O)O (stereo not drawn) [Example 1, 4-(2-chlorophenyl)-2-[2-(methylamino)ethoxymethyl]-3-ethoxycarbonyl-5-methoxycarbonyl-6-methyl-1,4-dihydropyridine, oxalate salt] | most active compounds | –
32 nM | CCOC(=O)C1=C(COCCNC)NC(C)=C(C(=O)OC)C1c1ccccc1 (stereo not drawn) [Example 2] | – | –
20 nM | CCOC(=O)C1=C(COCCNC)NC(C)=C(C(=O)OC)C1c1ccccc1F (stereo not drawn) [Example 3] | – | –
63 nM | CCOC(=O)C1=C(COCCNC)NC(C)=C(C(=O)OC)C1c1ccccc1OC (stereo not drawn) [Example 4] | – | –
40 nM | CCOC(=O)C1=C(COCCNC)NC(C)=C(C(=O)OC)C1c1cccc(Cl)c1 (stereo not drawn) [Example 5] | – | –
200 nM | CCOC(=O)C1=C(COCCNC)NC(C)=C(C(=O)OC)C1c1cccc(O)c1Cl (stereo not drawn) [Example 6] | – | –
13 nM | CCOC(=O)C1=C(COCCNC)NC(C)=C(C(=O)OC)C1c1c(F)cccc1Cl (stereo not drawn) [Example 7] | – | –
6.3 nM | CCOC(=O)C1=C(COCCN)NC(C)=C(C(=O)OC)C1c1cccc(Cl)c1Cl (stereo not drawn) [Example 13] | – | –
22 nM | CCOC(=O)C1=C(COCCNCC(=O)NC)NC(C)=C(C(=O)OC)C1c1ccccc1Cl (stereo not drawn) [Example 20] | – | –

From US4572909A, “2-(Secondary aminoalkoxymethyl) dihydropyridine derivatives as anti-ischaemic and antihypertensive agents” (Pfizer Inc., priority 1982, dated 1986)
